Reference: EP0863156A1, “Peptides useful as somatostatin antagonists” (American Cyanamid Company, priority 1997, dated 1998)
Where two headings read alike, the source gives them in different places. Square brackets hold non-standard residues; d marks the D form. Peptide text beside a SMILES is read from it.

Columns and labels:
[1] = target: T1, SRIF receptors (Rattus norvegicus, UniProt P30680); assay: Yeast bioassay for SRIF antagonist activity (zone of growth inhibition of LY364 cells growing in response to SRIF); format: cell-based; settings: 10 µL of 5 mg/mL on filter disk, S-14 10 nM; for Inhibition Zone (mm): sample type 4th iteration, read after 3 days, compare only within same experiment; for Yeast Assay (mm): Table III, diameter of zone of growth inhibition
T1 construct: expressed in transfected cells; host or cells: Saccharomyces cerevisiae strain LY364
T1 sequence (P30680 whole entry): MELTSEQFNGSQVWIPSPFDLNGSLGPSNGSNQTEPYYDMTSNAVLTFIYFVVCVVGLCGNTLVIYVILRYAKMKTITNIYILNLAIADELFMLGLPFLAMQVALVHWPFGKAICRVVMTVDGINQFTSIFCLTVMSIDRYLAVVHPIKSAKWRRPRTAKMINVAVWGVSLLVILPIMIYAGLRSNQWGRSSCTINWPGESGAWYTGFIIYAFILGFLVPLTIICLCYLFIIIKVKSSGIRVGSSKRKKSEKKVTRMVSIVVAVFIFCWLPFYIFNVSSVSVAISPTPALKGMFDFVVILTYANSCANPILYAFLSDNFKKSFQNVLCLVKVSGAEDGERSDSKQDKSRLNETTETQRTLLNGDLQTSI
Procedure: Agar plates containing LY364 cells that are growing in the presence of added SRIF are the basis for a sensitive SRIF antagonist assay, whereby zones of growth inhibition result from the addition of SRIF antagonists to the surface of the agar plate (see L.A. Price, et al., Molecular and Cellular Biology, 15, 6188-6195, 1995, incorporated herein by reference).
In this assay, LY364 cells are grown overnight in 2 mL of synthetic complete(SC) medium (3.4 g/L YNB without amino acids and ammonium sulfate, 10 g/L ammonium sulfate and 1.4 g/L CSM-ura-trp) with glucose (2%) and without uracil and tryptophan. These cells are washed and cultured for 4 to 8 hours in 5 mL of SC medium with lactate (3%) and without uracil and tryptophan, and finally grown overnight in 5 mL of SC medium with galactose (2%) and without uracil and tryptophan. Molten (50° C) SC agar medium with galactose (2%) and without uracil, tryptophan and histidine is adjusted to pH 6.8 with KOH, mixed with 2 x 10^4 cells/mL and SRIF (S-14, 10 nM) and poured into square (20 x 20 cm) petri dishes. Sterile filter disks are placed on the surface of the agar, and saturated with 10 µL of water or DMSO containing 5 mg/mL test peptides. After three days, the plates display a uniform cloudy background of […] cells growing in response to the added SRIF. […] This zone is quantified by measuring its diameter (mm), which varies according to the potency of the SRIF antagonist. Those peptides or mixtures of peptides displaying the largest zones of inhibition are further characterized.
Values are compared among samples in the same experiment, as the degree of yeast growth varies somewhat from assay to assay. For the first five sample types, in which progressively less complex mixtures of peptides are found, this assay is the primary determining factor in choosing which samples form the basis of subsequent syntheses.
Plates are read after 3 days. Samples shown in Table I in bold type are chosen for further synthesis. In Table I, all amino acids are D-amino acids and dashes represent undefined amino acid residues.

[2] = target: SSTR2 (Rattus norvegicus, UniProt P30680); assay: cAMP accumulation in forskolin-stimulated GH4C1/SSTR2 cells (SPA radioimmunoassay); format: cell-based; parameters: expressed in transfected cells; host or cells: GH4C1 rat pituitary tumor cells; settings: for Emax: GH4-C1, read-out: cAMP Assay Intrinsic activity; for Emax / cAMP Assay Intrinsic activity: percent reversal of SSTR2 activation by SRIF or MK678, 0% = forskolin plus agonist, 100% = forskolin alone
Chain of SSTR2 (P30680 whole entry): as above

[3] = tested on: serum growth hormone (GH) levels; assay: In vivo serum growth hormone levels in anaesthetized rats (radioimmunoassay); parameters: species or system Male Sprague-Dawley rats; settings: GRF 1 µg alone at 30 min
Procedure: Evaluation in anaesthetized rats. Male Sprague-Dawley rats are anaesthetized with Sagatal and fitted so as to allow efficient intravenous treatment with control and test compounds as well as frequent blood sampling. Blood samples are tested for growth hormone (GH) levels by radioimmunoassay. Thirty minutes after the initiation of blood sampling, rats are given 5 µg, 25 µg or 50 µg of peptide 1.
Peptide 1 is tested in combination with growth hormone releasing factor (GRF), to investigate whether said peptide may be mimicking the action of GRF. Anaesthetized rats are given GRF (1 µg) alone and in combination with peptide 1 (50 µg). […]

[4] = dose response of SRIF agonist upon cAMP levels in forskolin stimulated GH4C1/SSTR2 cells, agonist alone

Row | Compound | Inhibition Zone (mm) [1] [mm] | Yeast Assay (mm) [1] | cAMP Assay Intrinsic activity ([2]; test peptide 2 µM) [%] | also measured
1 | CC[C@@H](C)[C@@H](NC(=O)[C@@H](Cc1ccccc1)NC(=O)[C@@H](Cc1c[nH]cn1)NC(C)=O)C(=O)N[C@H](CCCNC(=N)N)C(=O)N[C@H](Cc1c[nH]c2ccccc12)C(=O)NCC(N)=O [His Phe Ile Arg Trp Gly] (Ac-[dH][dF][dI][dR][dW]G-NH2) | 13 |  |  | 
2 | CC(C)[C@@H]1NC(=O)[C@H](CCCCN)NC(=O)[C@@H](Cc2c[nH]c3ccccc23)NC(=O)[C@H](Cc2ccc(O)cc2)NC(=O)[C@H](C)N(C)C(=O)[C@H](Cc2ccccc2)NC1=O [MK678, reference compound] |  |  |  | cAMP ([2]; Forskolin 1.25 µM + MK 678 10 nM, no Peptide 1 (forskolin alone 3.04; baseline 0.36)): 0.91 pM per 4 x 10^4 cells; EC50 [2, 4]: 0.143 nM; Maximum [2, 4]: 6.431; Minimum [2, 4]: 2.673
3 | CC[C@@H](C)[C@@H](NC(=O)[C@@H](Cc1ccccc1)NC(=O)[C@@H](Cc1c[nH]cn1)NC(C)=O)C(=O)N[C@H](CCCNC(=N)N)C(=O)NCC(=O)N[C@H](Cc1ccccc1)C(N)=O [Peptide 26, h-f-i-r-g-f] (Ac-[dH][dF][dI][dR]G[dF]-NH2) |  |  |  | Emax ([2]; test peptide 2 µM): 4.51%
4 | CC[C@@H](C)[C@@H](NC(=O)[C@@H](Cc1c[nH]c2ccccc12)NC(=O)[C@@H](Cc1c[nH]cn1)NC(C)=O)C(=O)N[C@H](CCCNC(=N)N)C(=O)N[C@H](Cc1ccccc1)C(=O)N[C@H](Cc1ccccc1)C(N)=O [Peptide 29, h-w-i-r-f-f] (Ac-[dH][dW][dI][dR][dF][dF]-NH2; N-terminus and C-terminus assumed) |  |  |  | Emax ([2]; test peptide 100 µM): 21.3%
5 | CC[C@@H](C)[C@@H](NC(=O)[C@@H](CCCNC(=N)N)NC(=O)[C@@H](Cc1c[nH]c2ccccc12)NC(=O)[C@@H](Cc1ccccc1)NC(=O)[C@@H](Cc1c[nH]cn1)NC(C)=O)C(=O)N[C@H](Cc1ccccc1)C(N)=O [Peptide 30, h-f-w-r-i-f] (Ac-[dH][dF][dW][dR][dI][dF]-NH2; N-terminus and C-terminus assumed) |  |  |  | Emax ([2]; test peptide 100 µM): 12.9%
6 | CC[C@@H](C)[C@@H](NC(=O)[C@@H](CCCNC(=N)N)NC(=O)[C@@H](Cc1ccccc1)NC(=O)[C@@H](Cc1c[nH]cn1)NC(C)=O)C(=O)N[C@H](Cc1c[nH]c2ccccc12)C(=O)N[C@H](Cc1ccccc1)C(N)=O [Peptide 31, h-f-r-i-w-f] (Ac-[dH][dF][dR][dI][dW][dF]-NH2; N-terminus and C-terminus assumed) |  |  |  | Emax ([2]; test peptide 100 µM): 13%
7 | CC[C@@H](C)[C@@H](NC(C)=O)C(=O)N[C@H](CCCNC(=N)N)C(=O)N[C@H](Cc1c[nH]c2ccccc12)C(=O)N[C@H](Cc1ccccc1)C(=O)N[C@H](Cc1c[nH]cn1)C(=O)N[C@H](Cc1ccccc1)C(N)=O [Peptide 33, i-r-w-f-h-f] (Ac-[dI][dR][dW][dF][dH][dF]-NH2; N-terminus and C-terminus assumed) |  |  |  | Emax ([2]; test peptide 100 µM): 11.5%
8 | CC[C@@H](C)[C@H]1NC(=O)[C@@H](Cc2ccccc2)NC(=O)[C@@H](Cc2c[nH]cn2)NC(=O)[C@@H](Cc2ccccc2)NC(=O)[C@@H](Cc2c[nH]c3ccccc23)NC(=O)[C@@H](CCCNC(=N)N)NC1=O [Peptide 35, h-f-i-r-w-f] (cyclo([dH][dF][dI][dR][dW][dF])) |  |  |  | Emax ([2]; test peptide 100 µM): 122%
9 | GRF: growth hormone releasing factor (GRF) [reference compound] |  |  |  | SGH ([3]; time 0 min (before dosing)): 11.2 ng/mL; SGH ([3]; time 15 min (before dosing)): 11.3 ng/mL; SGH ([3]; time 30 min (time of dose)): 8.4 ng/mL; SGH ([3]; time 35 min): 67.1 ng/mL; SGH ([3]; time 40 min): 103.5 ng/mL; SGH ([3]; time 45 min): 53.1 ng/mL
10 | H-f-i-r-w-f [Peptide 13] |  | 15 mm | 26.2 | 
11 | a-f-i-r-w-f [Peptide 2] |  | none | 13.0 | 
12 | f-h-i-r-w-f [Peptide 24] |  | none | 65.2 | 
13 | f-i-r-w-f [Peptide 7] |  | none | -7.2 | 
14 | f-r-i-r-w-f [Peptide 25] |  | none | 10.8 | 
15 | h-F-i-r-w-f [Peptide 14] |  | 16 mm | 29.6 | 
16 | h-a-i-r-w-f [Peptide 3] |  | none | 9.33 | 
17 | h-f-I-r-w-f [Peptide 15] |  | 9 mm | 9.71 | 
18 | h-f-a-r-w-f [Peptide 4] |  | 16 mm | 41.8 | 

Continued, in another order:

Row | Inhibition Zone (mm) [1] [mm] | Yeast Assay (mm) [1] | cAMP Assay Intrinsic activity ([2]; test peptide 2 µM) [%] | Compound | also measured
19 | 15 |  |  | CC[C@@H](C)[C@@H](NC(=O)[C@@H](Cc1ccccc1)NC(=O)[C@@H](Cc1c[nH]cn1)NC(C)=O)C(=O)N[C@H](CCCNC(=N)N)C(=O)N[C@H](Cc1c[nH]c2ccccc12)C(=O)N[C@H](CC(C)C)C(N)=O [Seq Id No. 18] (Ac-[dH][dF][dI][dR][dW][dL]-NH2) | 
20 | 14 |  |  | CC[C@@H](C)[C@@H](NC(=O)[C@@H](Cc1ccccc1)NC(=O)[C@@H](Cc1c[nH]cn1)NC(C)=O)C(=O)N[C@H](CCCNC(=N)N)C(=O)N[C@H](Cc1c[nH]c2ccccc12)C(=O)N[C@@H](C(N)=O)[C@H](C)O [Seq Id No. 19] (Ac-[dH][dF][dI][dR][dW][dT]-NH2) | 
21 | 16 |  |  | CC[C@@H](C)[C@@H](NC(=O)[C@@H](Cc1ccccc1)NC(=O)[C@@H](Cc1c[nH]cn1)NC(C)=O)C(=O)N[C@H](CCCNC(=N)N)C(=O)N[C@H](Cc1c[nH]c2ccccc12)C(=O)N[C@H](Cc1ccc(O)cc1)C(N)=O [Seq Id No. 20] (Ac-[dH][dF][dI][dR][dW][dY]-NH2) | 
22 | 16 |  |  | CC[C@@H](C)[C@@H](NC(=O)[C@@H](Cc1c[nH]c2ccccc12)NC(=O)[C@@H](CCCNC(=N)N)NC(=O)[C@H](NC(=O)[C@@H](Cc1ccccc1)NC(=O)[C@@H](Cc1c[nH]cn1)NC(C)=O)[C@H](C)CC)C(N)=O [Seq Id No. 21] (Ac-[dH][dF][dI][dR][dW][dI]-NH2) | 
23 | 15 |  |  | CC[C@@H](C)[C@@H](NC(=O)[C@@H](Cc1ccccc1)NC(=O)[C@@H](Cc1c[nH]cn1)NC(C)=O)C(=O)N[C@H](CCCNC(=N)N)C(=O)N[C@H](Cc1c[nH]c2ccccc12)C(=O)N[C@H](C)C(N)=O [Seq Id No. 22] (Ac-[dH][dF][dI][dR][dW][dA]-NH2) | 
24 | 15 |  |  | CC[C@@H](C)[C@@H](NC(=O)[C@@H](Cc1ccccc1)NC(=O)[C@@H](Cc1c[nH]cn1)NC(C)=O)C(=O)N[C@H](CCCNC(=N)N)C(=O)N[C@H](Cc1c[nH]c2ccccc12)C(=O)N[C@H](CC(N)=O)C(N)=O [Seq Id No. 23] (Ac-[dH][dF][dI][dR][dW][dN]-NH2) | 
25 | 18 |  |  | CC[C@@H](C)[C@@H](NC(=O)[C@@H](Cc1ccccc1)NC(=O)[C@@H](Cc1c[nH]cn1)NC(C)=O)C(=O)N[C@H](CCCNC(=N)N)C(=O)N[C@H](Cc1c[nH]c2ccccc12)C(=O)N[C@H](CCSC)C(N)=O [Seq Id No. 24] (Ac-[dH][dF][dI][dR][dW][dM]-NH2) | 
26 | 16 |  |  | CC[C@@H](C)[C@@H](NC(=O)[C@@H](Cc1ccccc1)NC(=O)[C@@H](Cc1c[nH]cn1)NC(C)=O)C(=O)N[C@H](CCCNC(=N)N)C(=O)N[C@H](Cc1c[nH]c2ccccc12)C(=O)N[C@H](Cc1c[nH]c2ccccc12)C(N)=O [Seq Id No. 25] (Ac-[dH][dF][dI][dR][dW][dW]-NH2) | 
27 | 16 |  |  | CC[C@@H](C)[C@@H](NC(=O)[C@@H](Cc1ccccc1)NC(=O)[C@@H](Cc1c[nH]cn1)NC(C)=O)C(=O)N[C@H](CCCNC(=N)N)C(=O)N[C@H](Cc1c[nH]c2ccccc12)C(=O)N[C@H](CCC(N)=O)C(N)=O [Seq Id No. 26] (Ac-[dH][dF][dI][dR][dW][dQ]-NH2) | 
